{"source": "patent US10010541B2", "about": "“Modulation of tissue transglutaminase activation in disease” (The Board of Trustees of the Leland Stanford Junior …, priority 2014, dated 2018)", "key": {"TG2": {"biological_target": "T1, TG2 (Homo sapiens, UniProt P21980)", "T1 sequence (P21980 1-687)": "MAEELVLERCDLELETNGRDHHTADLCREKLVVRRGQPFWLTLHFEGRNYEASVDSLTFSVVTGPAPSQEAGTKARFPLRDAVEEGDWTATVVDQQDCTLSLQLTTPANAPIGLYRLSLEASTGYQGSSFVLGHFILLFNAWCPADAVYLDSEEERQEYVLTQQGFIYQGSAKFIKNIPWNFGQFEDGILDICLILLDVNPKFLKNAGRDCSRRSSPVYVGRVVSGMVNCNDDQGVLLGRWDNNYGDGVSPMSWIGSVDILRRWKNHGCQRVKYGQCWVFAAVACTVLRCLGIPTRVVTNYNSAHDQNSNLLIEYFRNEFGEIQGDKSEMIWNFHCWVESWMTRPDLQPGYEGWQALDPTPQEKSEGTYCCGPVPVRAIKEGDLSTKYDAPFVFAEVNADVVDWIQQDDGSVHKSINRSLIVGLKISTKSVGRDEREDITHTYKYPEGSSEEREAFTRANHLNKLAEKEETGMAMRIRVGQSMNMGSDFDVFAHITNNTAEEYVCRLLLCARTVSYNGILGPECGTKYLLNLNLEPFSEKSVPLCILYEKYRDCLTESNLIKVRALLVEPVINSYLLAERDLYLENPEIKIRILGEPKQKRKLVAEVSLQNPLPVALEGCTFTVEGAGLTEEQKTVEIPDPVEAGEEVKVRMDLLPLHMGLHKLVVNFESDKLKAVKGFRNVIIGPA", "assay": "glutamate dehydrogenase-coupled deamidation assay, substrate Cbz-Gln-Gly", "assay_type": "biochemical", "conditions": "irreversible inhibition model, full progress curves"}, "[1]": {"system": "proinflammatory cytokines IL-6, PAI-1 and MIP1α", "assay": "circulating proinflammatory cytokines in LPS-induced murine sepsis (ELISA)", "assay_type": "in vivo, mice", "description": "FIG. 3: The TG2 inhibitor CK996 reduces the proinflammatory cytokine load in septic mice at doses as low as 1.5 mg/kg: The graphs display the absolute circulating levels of the proinflammatory cytokines IL-6, PAI-1 and MIP1α in septic male BL6 mice as a function of the dose of intraperitoneally administered CK996 or ERW1041E. In each graph, the right y-axis depicts the relative levels of the respective cytokines over their background level in our control cohort. All septic mice in this study received lipopolysaccharide (LPS, 5 mg/kg i.v., at t=0) and either a TG2 inhibitor (CK996 or ERW1041E at 50, 15, 5.0 and 1.5 mg/kg i.p., at t=0 and 60 min) in vehicle (PBS with 5% DMSO, 2% Tween-80 and 2.5% hydroxypropyl-beta-cyclodextrin) or, for the septic control cohort, vehicle alone. An additional cohort defining the baseline cytokine levels received only intravenous vehicle and intraperitoneal inhibitor vehicle, respectively. At 3 hours the mice were euthanized and plasma collected in lithium heparin tubes. The levels of the respective proinflammatory cytokines were quantified using commercial ELISA kits according to the manufacturers' instructions. […]\nHaving established that intraperitoneal administration of CK996 could suppress TG2 activity in septic mice, we next sought to determine whether this pharmacologic intervention had any effect on the circulating levels of the key proinflammatory cytokines in sepsis. To this end, we administered CK996 in doses of 1.5, 5.0, 15 or 50 mg/kg intraperitoneally to septic mice (5 mg/kg LPS, iv) and measured the level of the proinflammatory cytokines IL-6, PAI-1 and MIP1α in plasma that was collected at 3 hours after infusion of LPS.\nWe therefore co-administered recombinant human thioredoxin protein (10 mg/kg, ip) along with CK996 (50 mg/kg, ip) to septic mice (5 mg/kg, iv) and quantified the load of proinflammatory cytokines as above."}}}
{"molecule": "O=C(N[C@@H]1C[C@@H](C(=O)NC[C@@H]2CC(Br)=NO2)N(C(=O)OCc2cnc3ccccc3c2)C1)c1cccnc1", "note": "[Compound 5, (2S,4R)-quinolin-3-ylmethyl 2-((((S)-3-bromo-4,5-dihydroisoxazol-5-yl)methyl)carbamoyl)-4-(nicotinamido)pyrrolidine-1-carboxylate]", "values": [{"measurement": "kinh/Ki TG2", "setting": "TG2", "result": 1800, "unit": "M⁻¹ s⁻¹"}, {"measurement": "circulating levels of IL-6, PAI-1 and MIP1α", "setting": "[1]; septic mice (LPS 5 mg/kg iv), all doses tested (1.5, 5.0, 15 or 50 mg/kg ip), plasma at 3 hours", "result": "dramatically reduced"}, {"measurement": "dose that reduces the proinflammatory cytokine load", "setting": "[1]; septic mice, ip at t=0 and 60 min", "result": "≤ 1.5", "unit": "mg/kg"}]}
